# Data taken from patent publication US20260042764A1, “COMPOSITIONS AND METHODS FOR INHIBITION OF KRAS” (TheRas, Inc., priority 2022, published 2026).
# Columns and labels:
# [1] = target: T1, Avi-KRAS G12D (1-169) GppNHp/RAF1 RBD-3xFLAG (52-151) (Homo sapiens, UniProt P01116, G12D); test: Raf1-KRAS G12D-GppNHP disruption HTRF assay (Biological Example 1); type: binding
# T1 construct: Avi-KRAS G12D (1-169)
# In short: (§1)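 Compounds were tested for disruption of KRAS–RAF1 RBD binding by HTRF in 50 mM Tris pH 7.5, 100 mM NaCl, 5 mM MgCl2, 0.1% BSA, 0.01% Tween, 10% DMSO. Protein mix was incubated 1 h at room temperature with shaking, then detection reagents added for another 1 h. Activity expressed as percent of DMSO control.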
# [2] = target: T2, Avi-KRAS G12R (1-169) GppNHp/RAF1 RBD-3xFLAG (52-151) (Homo sapiens, UniProt P01116, G12R); test: Raf1-KRAS G12R-GppNHP disruption HTRF assay (Biological Example 1); type: binding
# T2 construct: Avi-KRAS G12R (1-169)
# T2 sequence (P01116 1-169 isoform P01116-2 G12R): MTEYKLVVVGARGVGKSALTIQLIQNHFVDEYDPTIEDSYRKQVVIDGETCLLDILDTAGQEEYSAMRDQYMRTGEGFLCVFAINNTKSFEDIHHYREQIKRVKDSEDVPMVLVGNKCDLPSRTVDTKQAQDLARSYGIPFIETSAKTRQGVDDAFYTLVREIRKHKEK
# In short: as §1
# [3] = target: T3, Avi-KRAS G12V (1-169) GppNHp/RAF1 RBD-3xFLAG (52-151) (Homo sapiens, UniProt P01116, G12V); test: Raf1-KRAS G12V-GppNHP disruption HTRF assay (Biological Example 1); type: binding
# T3 construct: Avi-KRAS G12V (1-169)
# T3 sequence (P01116 1-169 isoform P01116-2 G12V): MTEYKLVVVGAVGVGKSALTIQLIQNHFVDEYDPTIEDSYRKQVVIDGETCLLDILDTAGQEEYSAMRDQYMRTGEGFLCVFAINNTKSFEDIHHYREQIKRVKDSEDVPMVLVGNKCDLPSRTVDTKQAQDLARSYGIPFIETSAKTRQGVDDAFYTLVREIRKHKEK
# In short: as §1
# [4] = target: T4, Avi-KRAS WT (1-169) GppNHp/RAF1 RBD-3xFLAG (52-151) (Homo sapiens, UniProt P01116); test: Raf1-KRAS WT-GppNHP disruption HTRF assay (Biological Example 1); type: binding
# T4 construct: Avi-KRAS WT (1-169)
# T4 sequence (P01116 1-169 isoform P01116-2): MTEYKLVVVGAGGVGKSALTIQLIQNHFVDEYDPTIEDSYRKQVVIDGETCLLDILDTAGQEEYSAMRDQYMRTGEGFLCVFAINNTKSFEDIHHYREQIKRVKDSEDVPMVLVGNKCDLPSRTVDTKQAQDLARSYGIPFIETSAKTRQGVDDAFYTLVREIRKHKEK
# In short: as §1
# GP2d cells (KRAS G12D) = test: Cell-based pERK HTRF assay in GP2d cell (Biological Example 2); conditions: GP2d (KRAS G12D) cells, pERK HTRF
# In short: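 Treatment with test compounds lasted one hour in DMEM containing 10% FBS, with DMSO held at 0.25%. Dilution series: 9 points, half-log spacing, highest 1 μM or 100 nM. Lysates were incubated 4–24 h at room temperature with antibody mix, then HTRF was read at 320 nm excitation.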
# SW620 cells (KRAS G12V) = test: Cell-based pERK HTRF assay in SW620 cell (Biological Example 4); conditions: pERK HTRF
# In short: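 SW620 cells were treated for 4 h with compound in a 9-point half-log series from 1 μM top (0.25% DMSO), then lysed. Phospho-ERK was detected by HTRF with d2 and Eu cryptate antibodies after 4–24 h at room temperature, read at 615 nm emission.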
# [5] = Homo sapiens, SW-620, SW620 (KRAS G12V) cells
# [6] = KRAS G12D, GppNHp-loaded, class symbols
# [7] = KRAS G12R, GppNHp-loaded, class symbols
# [8] = KRAS G12V, GppNHp-loaded, class symbols
# [9] = KRAS WT, GppNHp-loaded, class symbols
# [10] = Homo sapiens, SW-620, SW620 (KRAS G12V) cells, class symbols
# T1 sequence (P01116 1-169 isoform P01116-2 G12D): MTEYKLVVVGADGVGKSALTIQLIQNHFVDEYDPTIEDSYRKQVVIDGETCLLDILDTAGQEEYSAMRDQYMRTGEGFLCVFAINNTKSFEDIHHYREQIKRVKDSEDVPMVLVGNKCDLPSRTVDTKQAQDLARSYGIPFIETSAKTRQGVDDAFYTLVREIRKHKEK
IC50 (GP2d cells (KRAS G12D); GP2d),IC50 (SW620 cells (KRAS G12V); [5]),"IC50 [1, 6]","IC50 [2, 7]","IC50 [3, 8]","IC50 [4, 9]","IC50 (GP2d cells (KRAS G12D); GP2d, class symbols)",IC50 (SW620 cells (KRAS G12V); [10]),IC50 ([1]; KRAS G12D-GppNHp/RAF1 RBD HTRF),IC50 ([2]; KRAS G12R-GppNHp/RAF1 RBD HTRF),IC50 ([3]; KRAS G12V-GppNHp/RAF1 RBD HTRF),IC50 ([4]; KRAS WT-GppNHp/RAF1 RBD HTRF),SMILES,also measured
100 to 1000 nM,100 to 1000 nM,–,–,–,–,–,–,–,–,–,–,COC[C@H]1CCN1c1nc(OC[C@@]23CCCN2C[C@H](F)C3)nc2c(F)c(-c3ccc(F)c4sc(N)c(C#N)c34)c(C(F)(F)F)cc12 [Compound 270],"IC50 ([1]; KRAS G12D, GppNHp-loaded, Table 11): 100 to 1000 nM; IC50 ([2]; KRAS G12R, GppNHp-loaded, Table 11): 100 to 1000 nM; IC50 ([3]; KRAS G12V, GppNHp-loaded, Table 11): 100 to 1000 nM; IC50 ([4]; KRAS WT, GppNHp-loaded, Table 11): 100 to 1000 nM"
–,–,< 100 nM,< 100 nM,< 100 nM,< 100 nM,< 100 nM,< 100 nM,–,–,–,–,CCN(c1nc(OC[C@@]23CCCN2C[C@H](F)C3)nc2c(F)c(-c3ccc(F)c4sc(N)c(C#N)c34)c(C(F)(F)F)cc12)[C@H]1CCN(C(=O)OC2CCN(C(C)=O)C2)C1 (stereo partly drawn) [Compound 711],–
–,–,< 100 nM,< 100 nM,< 100 nM,< 100 nM,< 100 nM,< 100 nM,–,–,–,–,"CCN(c1nc(OC[C@@]23CCCN2C[C@H](F)C3)nc2c(F)c(-c3ccc(F)c4sc(N)c(C#N)c34)c(C(F)(F)F)cc12)[C@H]1CCN(C(=O)c2cnsc2)C1 (atropisomer, axis not shown) [Compound 729]",–
–,–,100 to 1000 nM,100 to 1000 nM,100 to 1000 nM,100 to 1000 nM,< 100 nM,< 100 nM,–,–,–,–,"CCN(c1nc(OC[C@@]23CCCN2C[C@H](F)C3)nc2c(F)c(-c3ccc(F)c4sc(N)c(C#N)c34)c(C(F)(F)F)cc12)[C@@H]1C[C@H](C)N(C(=O)COC)C1 (atropisomer, axis not shown) [Compound 589]",–
< 100 nM,< 100 nM,–,–,–,–,–,–,< 100 nM,< 100 nM,100 to 1000 nM,100 to 1000 nM,[2H]C1([2H])CN2C[C@H](F)C[C@]2(COc2nc(N(CC)[C@H]3CCN(C(=O)C(C)C)C3)c3cc(C(F)(F)F)c(-c4ccc(F)c5sc(N)c(C#N)c45)c(F)c3n2)C1 [Compound 565],–
< 100 nM,< 100 nM,–,–,–,–,–,–,100 to 1000 nM,1000 to 10000 nM,1000 to 10000 nM,100 to 1000 nM,"CCN(c1nc(OC[C@@]23CCCN2C[C@H](F)C3)nc2c(F)c(-c3ccc(F)c4sc(N)c(C#N)c34)c(C(F)(F)F)cc12)[C@@H]1C[C@H](C)N(C(=O)N(C)C)C1 (atropisomer, axis not shown) [Compound 545]",–
–,–,–,–,–,–,–,–,100 to 1000 nM,100 to 1000 nM,1000 to 10000 nM,100 to 1000 nM,N#Cc1c(N)sc2c(F)ccc(-c3c(C(F)(F)F)cc4c(N5CCN6C(=O)CCC6C5)nc(OCC56CCCN5CC(F)C6)nc4c3F)c12 (stereo not drawn) [Compound 430],IC50 (GP2d cells (KRAS G12D)): < 100 nM; IC50 (SW620 cells (KRAS G12V); SW620 (KRAS G12V) cells): < 100 nM
< 100 nM,< 100 nM,–,–,–,–,–,–,100 to 1000 nM,1000 to 10000 nM,1000 to 10000 nM,100 to 1000 nM,N#Cc1c(N)sc2c(F)ccc(-c3c(C(F)(F)F)cc4c(N5CCCN6C(=O)CC[C@H]6C5)nc(OC[C@@]56CCCN5C[C@H](F)C6)nc4c3F)c12 [Compound 487],–
–,–,< 100 nM,100 to 1000 nM,100 to 1000 nM,100 to 1000 nM,< 100 nM,< 100 nM,–,–,–,–,"CO[C@@H](C)C(=O)N1CC[C@H](N(c2nc(OC[C@@]34CCCN3C[C@H](F)C4)nc3c(F)c(-c4ccc(F)c5sc(N)c(C#N)c45)c(C(F)(F)F)cc23)C2CC2)C1 (atropisomer, axis not shown) [Compound 811]",–
–,–,1000 to 10000 nM,1000 to 10000 nM,1000 to 10000 nM,100 to 1000 nM,100 to 1000 nM,100 to 1000 nM,–,–,–,–,"CCN(c1nc(OC[C@@]23CCCN2C[C@H](F)C3)nc2c(F)c(-c3ccc(F)c4sc(N)c(C#N)c34)c(C(F)(F)F)cc12)[C@H]1CCN(C(=O)OC)[C@H]1C (atropisomer, axis not shown) [Compound 799]",–
